{
  "source": "patent US10155777B2",
  "about": "“Trans-cycloheptenes and hetero-trans-cycloheptenes for bioorthogonal coupling” (UNIVERSITY OF DELAWARE, priority 2015, dated 2018)",
  "test": "Rate of tetrazine ligation, by restoring of fluorescence, stopped-flow spectrophotometer",
  "conditions": "9:1 H2O:MeOH at 25° C., low concentration",
  "from_the_text": "The rate of the reaction between (E)-Si-(4-hydroxybutyl)-Si-methyl-5-silacycloheptene and tetramethylrhodamine-conjugated dipyridyl tetrazine was studied. The results are shown in Scheme 2. With a rate constant that exceeds 10^7 M^−1s^−1 (Scheme 2), (E)-Si-(4-hydroxybutyl)-Si-methyl-5-silacycloheptene is the most reactive dienophile to date for bioorthogonal applications. As the reaction was too rapid for reliable rate determination by UV-vis kinetics, the inventors determined the rate of the reaction by the restoring of fluorescence after tetrazine ligation at low concentration in 9:1 H2O:MeOH at 25° C. by using an SX 18MV-R stopped-flow spectrophotometer (Applied Photophysics Ltd.). This is depicted in Scheme 4.",
  "data": [
    {"smiles": "C[Si]1(CCCCO)CCC=CCC1", "note": "[(E)-Si-(4-hydroxybutyl)-Si-methyl-5-silacycloheptene]", "values": [
      {"measurement": "rate constant of reaction with tetrazine", "result": "exceeds 10^7 M^−1s^−1"}
    ]}
  ]
}
